In ChEMBL document CHEMBL3046126, “Synthesis and Herbicidal Activity of New Oxazolidinedione Derivatives” (J Pestic Sci, 1999):

Experiments:
Oryza sativa [1] = test: Pre-emergence phytotoxicity against Oryza sativa cv. Koshihikari (rice) assessed as induction of leaf sheath browning at 2.5 kg ai/ha measured after 14 days post treatment under flooded conditions; type: organism-based; conditions: in vivo, other, 336 h
Lindernia procumbens [2] = test: Pre-emergence herbicidal activity against Lindernia procumbens assessed as phytotoxic weed control visual ratings at 2.5 kg ai/ha measured after 14 days post treatment under flooded conditions; type: functional
Oryza sativa [3] = test: Pre-emergence phytotoxicity against Oryza sativa cv. Koshihikari (rice) assessed as phytotoxic crop injury visual ratings at 2.5 kg ai/ha measured after 14 days post treatment under flooded conditions; type: organism-based; conditions: in vivo, other, 336 h
Elatine triandra [4] = test: Pre-emergence herbicidal activity against Elatine triandra assessed as phytotoxic weed control visual ratings at 2.5 kg ai/ha measured after 14 days post treatment under flooded conditions; type: functional
Rotala indica [5] = test: Pre-emergence herbicidal activity against Rotala indica assessed as phytotoxic weed control visual ratings at 2.5 kg ai/ha measured after 14 days post treatment under flooded conditions; type: functional
Pontederia vaginalis [6] = test: Pre-emergence herbicidal activity against Monochoria vaginalis assessed as phytotoxic weed control visual ratings at 2.5 kg ai/ha measured after 14 days post treatment under flooded conditions; type: functional
Echinochloa oryzicola [7] = test: Pre-emergence herbicidal activity against Echinochloa oryzicola assessed as phytotoxic weed control visual ratings at 2.5 kg ai/ha measured after 14 days post treatment under flooded conditions; type: functional
[8] = tested on: Schoenoplectiella juncoides; test: Pre-emergence herbicidal activity against Schoenoplectiella juncoides assessed as phytotoxic weed control visual ratings at 2.5 kg ai/ha measured after 14 days post treatment under flooded conditions; type: functional
Cyperus difformis [9] = test: Pre-emergence herbicidal activity against Cyperus difformis assessed as phytotoxic weed control visual ratings at 2.5 kg ai/ha measured after 14 days post treatment under flooded conditions; type: functional
Pontederia vaginalis [10] = test: Pre-emergence herbicidal activity against Monochoria vaginalis assessed as phytotoxic weed control visual ratings at 25 g ai/ha measured after 14 days post treatment under flooded conditions; type: functional
Oryza sativa [11] = test: Pre-emergence phytotoxicity against Oryza sativa cv. Koshihikari (rice) assessed as phytotoxic crop injury visual ratings at 25 g ai/ha measured after 14 days post treatment under flooded conditions; type: organism-based; conditions: in vivo, other, 336 h
Echinochloa crus-galli [12] = test: Pre-emergence herbicidal activity against Echinochloa crus-galli (barnyard grass) assessed as phytotoxic weed control visual ratings at 500 g ai/ha measured after 14 days post treatment under upland field conditions; type: functional
Lindernia procumbens [13] = test: Pre-emergence herbicidal activity against Lindernia procumbens assessed as phytotoxic weed control visual ratings at 25 g ai/ha measured after 14 days post treatment under flooded conditions; type: functional
Oryza sativa [14] = test: Post-emergence phytotoxicity against Oryza sativa cv. Koshihikari (rice) assessed as phytotoxic crop injury visual ratings measured after 14 days post treatment; type: organism-based; conditions: in vivo, 336 h
Pontederia vaginalis [15] = test: Early post-emergence herbicidal activity against Monochoria vaginalis assessed as phytotoxic weed control visual ratings at 50 kg ai/ha measured after 14 days post treatment under flooded conditions; type: functional
Zea mays = test: Pre-emergence phytotoxicity against Zea mays (maize) assessed as phytotoxic crop injury visual ratings at 500 g ai/ha measured after 14 days post treatment under upland field conditions; type: organism-based; conditions: in vivo, other, 336 h
Echinochloa oryzicola [16] = test: Pre-emergence herbicidal activity against Echinochloa oryzicola assessed as phytotoxic weed control visual ratings at 25 g ai/ha measured after 14 days post treatment under flooded conditions; type: functional
[17] = Selectivity index, ratio of ED10 for Oryza sativa to ED90 for Echinochloa oryzicola by pre-emergence exposure method
Elatine triandra [18] = test: Pre-emergence herbicidal activity against Elatine triandra assessed as phytotoxic weed control visual ratings at 25 g ai/ha measured after 14 days post treatment under flooded conditions; type: functional
Ammannia multiflora = test: Early post-emergence herbicidal activity against Ammannia multiflora assessed as phytotoxic weed control visual ratings at 50 kg ai/ha measured after 14 days post treatment under flooded conditions; type: functional
Echinochloa oryzicola [19] = test: Pre-emergence herbicidal activity against Echinochloa oryzicola assessed as phytotoxic weed control visual ratings measured after 14 days post treatment; type: functional
[20] = tested on: Schoenoplectiella juncoides; test: Pre-emergence herbicidal activity against Schoenoplectiella juncoides assessed as phytotoxic weed control visual ratings at 25 g ai/ha measured after 14 days post treatment under flooded conditions; type: functional
Digitaria ciliaris = test: Pre-emergence herbicidal activity against Digitaria ciliaris assessed as phytotoxic weed control visual ratings at 500 g ai/ha measured after 14 days post treatment under upland field conditions; type: functional
Echinochloa oryzicola [21] = test: Post-emergence herbicidal activity against Echinochloa oryzicola assessed as phytotoxic weed control visual ratings measured after 14 days post treatment; type: functional
Rotala indica [22] = test: Pre-emergence herbicidal activity against Rotala indica assessed as phytotoxic weed control visual ratings at 25 g ai/ha measured after 14 days post treatment under flooded conditions; type: functional
Cyperus difformis [23] = test: Pre-emergence herbicidal activity against Cyperus difformis assessed as phytotoxic weed control visual ratings at 25 g ai/ha measured after 14 days post treatment under flooded conditions; type: functional
[24] = Selectivity index, ratio of ED10 for Oryza sativa to ED90 for Echinochloa oryzicola by post-emergence exposure method
Chenopodium album = test: Pre-emergence herbicidal activity against Chenopodium album assessed as phytotoxic weed control visual ratings at 500 g ai/ha measured after 14 days post treatment under upland field conditions; type: functional
Echinochloa crus-galli [25] = test: Early post-emergence herbicidal activity against Echinochloa crus-galli (barnyard grass) assessed as phytotoxic weed control visual ratings at 50 kg ai/ha measured after 14 days post treatment under flooded conditions; type: functional
Amaranthus viridis = test: Pre-emergence herbicidal activity against Amaranthus viridis assessed as phytotoxic weed control visual ratings at 500 g ai/ha measured after 14 days post treatment under upland field conditions; type: functional
Oryza sativa [26] = test: Pre-emergence phytotoxicity against Oryza sativa cv. Koshihikari (rice) assessed as phytotoxic crop injury visual ratings measured after 14 days post treatment; type: organism-based; conditions: in vivo, 336 h
Lindernia procumbens [27] = test: Pre-emergence herbicidal activity against Lindernia procumbens assessed as phytotoxic weed control visual ratings at 1.25 kg ai/ha measured after 14 days post treatment under flooded conditions; type: functional
[28] = tested on: Schoenoplectiella juncoides; test: Pre-emergence herbicidal activity against Schoenoplectiella juncoides assessed as phytotoxic weed control visual ratings at 1.25 kg ai/ha measured after 14 days post treatment under flooded conditions; type: functional
Elatine triandra [29] = test: Pre-emergence herbicidal activity against Elatine triandra assessed as phytotoxic weed control visual ratings at 1.25 kg ai/ha measured after 14 days post treatment under flooded conditions; type: functional
Rotala indica [30] = test: Pre-emergence herbicidal activity against Rotala indica assessed as phytotoxic weed control visual ratings at 1.25 kg ai/ha measured after 14 days post treatment under flooded conditions; type: functional
Pontederia vaginalis [31] = test: Pre-emergence herbicidal activity against Monochoria vaginalis assessed as phytotoxic weed control visual ratings at 1.25 kg ai/ha measured after 14 days post treatment under flooded conditions; type: functional
Cyperus difformis [32] = test: Pre-emergence herbicidal activity against Cyperus difformis assessed as phytotoxic weed control visual ratings at 1.25 kg ai/ha measured after 14 days post treatment under flooded conditions; type: functional
Echinochloa oryzicola [33] = test: Pre-emergence herbicidal activity against Echinochloa oryzicola assessed as phytotoxic weed control visual ratings at 1.25 kg ai/ha measured after 14 days post treatment under flooded conditions; type: functional
Oryza sativa [34] = test: Pre-emergence phytotoxicity against Oryza sativa cv. Koshihikari (rice) assessed as phytotoxic crop injury visual ratings at 1.25 kg ai/ha measured after 14 days post treatment under flooded conditions; type: organism-based; conditions: in vivo, other, 336 h

Compound | Phytotoxicity (Pontederia vaginalis [10]) [%] | Phytotoxicity (Oryza sativa [11]) [%] | Phytotoxicity (Echinochloa crus-galli [12]) [%] | Phytotoxicity (Lindernia procumbens [13]) [%] | ED10 (Oryza sativa [14]) [gAi/ha] | Phytotoxicity (Zea mays) [%] | Phytotoxicity (Echinochloa oryzicola [16]) [%] | Selectivity Index [17] | Phytotoxicity (Elatine triandra [18]) [%] | ED90 (Echinochloa oryzicola [19]) [gAi/ha] | Phytotoxicity [20] [%] | Phytotoxicity (Digitaria ciliaris) [%] | ED90 (Echinochloa oryzicola [21]) [gAi/ha] | Phytotoxicity (Rotala indica [22]) [%] | Phytotoxicity (Cyperus difformis [23]) [%] | Selectivity Index [24] | Phytotoxicity (Chenopodium album) [%] | Phytotoxicity (Amaranthus viridis) [%] | ED10 (Oryza sativa [26]) [gAi/ha] | other results
CC(C)=C1OC(=O)N(c2ccc(Cl)cc2Cl)C1=O | – | – | – | – | – | – | – | – | – | – | – | – | – | – | – | – | – | – | – | Activity (Oryza sativa [1]): Toxic; Phytotoxicity (Lindernia procumbens [2]): 100%; Phytotoxicity (Oryza sativa [3]): 20%; Phytotoxicity (Elatine triandra [4]): 100%; Phytotoxicity (Rotala indica [5]): 100%; Phytotoxicity (Pontederia vaginalis [6]): 100%; Phytotoxicity (Echinochloa oryzicola [7]): 100%; Phytotoxicity [8]: 100%; Phytotoxicity (Cyperus difformis [9]): 100%
CC(C)=C1OC(=O)N(c2ccc(Cl)c(Cl)c2)C1=O | – | – | – | – | – | – | – | – | – | – | – | – | – | – | – | – | – | – | – | Activity (Oryza sativa [1]): Toxic; Phytotoxicity (Lindernia procumbens [2]): 100%; Phytotoxicity (Oryza sativa [3]): 10%; Phytotoxicity (Elatine triandra [4]): 100%; Phytotoxicity (Rotala indica [5]): 100%; Phytotoxicity (Pontederia vaginalis [6]): 80%; Phytotoxicity (Echinochloa oryzicola [7]): 10%; Phytotoxicity [8]: 80%; Phytotoxicity (Cyperus difformis [9]): 100%
C#CCOc1cc(N2C(=O)OC(=C(C)C)C2=O)c(F)cc1Cl | 100 | 30 | 80 | 100 | 25 | 10 | 100 | 2 | 100 | 3.13 | 100 | 100 | 12.5 | 100 | 100 | 2 | 100 | 100 | 6.25 | Phytotoxicity (Pontederia vaginalis [15]): 100%; Phytotoxicity (Ammannia multiflora): 100%; Phytotoxicity (Echinochloa crus-galli [25]): 100%
C#CCSc1cc(N2C(=O)OC(=C(C)C)C2=O)c(F)cc1Cl | 100 | 0 | 50 | 100 | 200 | 0 | 100 | 4 | 100 | 12.5 | 100 | 30 | 100 | 100 | 100 | 2 | 100 | 100 | 50 | –
C=CCOc1cc(N2C(=O)OC(=C(C)C)C2=O)c(F)cc1Cl | 100 | 0 | 30 | 100 | 100 | 10 | 80 | 1 | 100 | 50 | 90 | 90 | 100 | 100 | 100 | 1 | 70 | 80 | 50 | –
CC(C)=C1OC(=O)N(c2cc(OC3CCCC3)c(Cl)cc2F)C1=O [PENTOXAZONE] | 100 | 0 | 60 | 100 | 400 | 10 | 100 | 16 | 100 | 12.5 | 100 | 90 | 25 | 100 | 100 | 16 | 50 | 100 | 200 | –
CC(C)=C1OC(=O)N(c2cc(OC(C)C)c(Cl)cc2F)C1=O | 100 | 0 | 90 | 100 | 150 | 10 | 100 | 4 | 100 | 25 | 90 | 100 | 25 | 100 | 100 | 6 | 100 | 100 | 100 | –
CC(C)=C1OC(=O)N(c2cc(OC3CCCCC3)c(Cl)cc2F)C1=O | 100 | 0 | 10 | 100 | 200 | 10 | 100 | 8 | 100 | 25 | 80 | 30 | 25 | 100 | 100 | 8 | 20 | 30 | 200 | –
CC(C)=C1OC(=O)N(c2ccc(Cl)cc2)C1=O | – | – | – | – | – | – | – | – | – | – | – | – | – | – | – | – | – | – | – | Activity (Oryza sativa [1]): Toxic; Phytotoxicity (Lindernia procumbens [2]): 100%; Phytotoxicity (Oryza sativa [3]): 30%; Phytotoxicity (Lindernia procumbens [27]): 100%; Phytotoxicity [28]: 100%; Phytotoxicity (Elatine triandra [29]): 100%; Phytotoxicity (Rotala indica [30]): 100%; Phytotoxicity (Elatine triandra [4]): 100%; Phytotoxicity (Pontederia vaginalis [31]): 100%; Phytotoxicity (Rotala indica [5]): 100%; Phytotoxicity (Cyperus difformis [32]): 100%; Phytotoxicity (Pontederia vaginalis [6]): 100%; Phytotoxicity (Echinochloa oryzicola [33]): 90%; Phytotoxicity (Oryza sativa [34]): 10%; Phytotoxicity (Echinochloa oryzicola [7]): 100%; Phytotoxicity [8]: 100%; Phytotoxicity (Cyperus difformis [9]): 100%
C#CCOc1cc(N2C(=O)OC(=C(C)C)C2=O)c(Cl)cc1Cl | – | – | – | – | – | – | – | – | – | – | – | – | – | – | – | – | – | – | – | Phytotoxicity (Pontederia vaginalis [15]): 100%; Phytotoxicity (Ammannia multiflora): 90%; Phytotoxicity (Echinochloa crus-galli [25]): 90%
CC(C)Oc1cc(-n2nc(C(C)(C)C)oc2=O)c(Cl)cc1Cl [OXADIAZON] | 100 | 0 | 100 | 100 | 400 | 40 | 90 | 8 | 100 | 25 | 100 | 100 | 50 | 100 | 100 | 8 | 100 | 100 | 200 | –
C#CCOc1cc(N2C(=O)OC(=C(C)C)C2=O)c(F)cc1Br | – | – | – | – | – | – | – | – | – | – | – | – | – | – | – | – | – | – | – | Phytotoxicity (Pontederia vaginalis [15]): 100%; Phytotoxicity (Ammannia multiflora): 100%; Phytotoxicity (Echinochloa crus-galli [25]): 80%
